# Measurements as given in patent publication US11339161B2, “Triazolo pyridines as modulators of gamma-secretase” (Boehringer Ingelheim International GmbH, priority 2017, dated 2022).
# Like-named read-outs stand apart in the source and are kept apart here.
# Tests used:
# [1] = biological target: T1, MAP4K2 (GCK) (Homo sapiens, UniProt Q12851); assay: Z'-LYTE SelectScreen biochemical kinase assay MAP4K2 (GCK)
# T1 sequence (Q12851 1-820): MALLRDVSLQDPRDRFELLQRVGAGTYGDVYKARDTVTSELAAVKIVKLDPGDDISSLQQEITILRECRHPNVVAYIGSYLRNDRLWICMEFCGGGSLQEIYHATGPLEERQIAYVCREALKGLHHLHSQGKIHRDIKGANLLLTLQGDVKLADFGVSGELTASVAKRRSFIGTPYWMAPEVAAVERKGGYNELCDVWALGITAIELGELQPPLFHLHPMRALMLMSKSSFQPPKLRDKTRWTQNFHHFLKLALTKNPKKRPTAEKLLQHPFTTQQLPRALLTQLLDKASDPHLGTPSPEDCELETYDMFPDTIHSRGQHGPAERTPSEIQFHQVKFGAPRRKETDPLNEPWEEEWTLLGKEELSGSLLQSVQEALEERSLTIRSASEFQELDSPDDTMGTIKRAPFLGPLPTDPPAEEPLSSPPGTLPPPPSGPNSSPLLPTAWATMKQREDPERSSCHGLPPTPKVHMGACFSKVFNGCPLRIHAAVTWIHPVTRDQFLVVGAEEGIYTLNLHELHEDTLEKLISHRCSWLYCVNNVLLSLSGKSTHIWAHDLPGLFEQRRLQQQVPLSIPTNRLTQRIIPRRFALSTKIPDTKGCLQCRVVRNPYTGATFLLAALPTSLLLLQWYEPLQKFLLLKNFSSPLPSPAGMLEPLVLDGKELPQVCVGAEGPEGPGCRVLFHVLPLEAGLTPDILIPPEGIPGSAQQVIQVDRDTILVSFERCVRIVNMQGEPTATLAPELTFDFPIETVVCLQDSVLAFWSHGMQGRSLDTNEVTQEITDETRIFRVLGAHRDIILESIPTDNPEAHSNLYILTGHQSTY
# Description: (§1) Thermo Fisher Scientific SelectScreen™ Biochemical Kinase Profiling Service Z′-LYTE™ Screening Protocol and Assay Conditions Assay Theory
# (§2) The […] biochemical assay employs a fluorescence-based, coupled-enzyme format and is based on the differential sensitivity of phosphorylated and non-phosphorylated peptides to proteolytic cleavage. The peptide substrate is labeled with two fluorophores—one at each end—that make up a FRET pair. In the primary reaction, the kinase transfers the gamma-phosphate of ATP to a single tyrosine, serine or threonine residue in a synthetic FRET-peptide. In the secondary reaction, a site-specific protease recognizes and cleaves non-phosphorylated FRET-peptides. Phosphorylation of FRET-peptides suppresses cleavage by the Development Reagent. Cleavage disrupts FRET between the donor (i.e., coumarin) and acceptor (i.e., fluorescein) fluorophores on the FRET-peptide, whereas uncleaved, phosphorylated FRET-peptides maintain FRET. A ratiometric method, which calculates the ratio (Emission Ratio=Coumarin emission (445 nm)/Fluorescein emission (520 nm)) of donor emission to acceptor emission after excitation of the donor fluorophore at 400 nm, is used to quantitate reaction progress, as shown in the equation below. A significant benefit of this ratiometric method for quantitating reaction progress is the elimination of well-to-well variations in FRET-peptide concentration and signal intensities. As a result, the assay yields very high Z′-factor values (>0.7) at a low percent phosphorylation. Both cleaved and uncleaved FRET-peptides contribute to the fluorescence signals and therefore to the Emission Ratio. The extent of phosphorylation of the FRET-peptide can be calculated from the Emission Ratio. The Emission Ratio will remain low if the FRET-peptide is phosphorylated (i.e., no kinase inhibition) and will be high if the FRET-peptide is non-phosphorylated (i.e., kinase inhibition).
# (§3) The Test Compounds are screened in 1% DMSO (final) in the well. For 10 point titrations, 3-fold serial dilutions are conducted from the starting concentration of the customer's choosing.
# (§4) All Peptide/Kinase Mixtures are diluted to a 2× working concentration in the appropriate Kinase Buffer (see section Kinase Specific Assay Conditions for a complete description).
# (§5) All ATP Solutions are diluted to a 4× working concentration in Kinase Buffer (50 mM HEPES pH 7.5, 0.01% BRIJ-35, 10 mM MgCl2, 1 mM EGTA). ATP Km apparent is previously determined using a Z″-LYTE assay.
# (§6) The Development Reagent is diluted in Development Buffer (see section Kinase-Specific Assay Conditions—Direct and Cascade for a complete description).
# (§7) Bar-coded Corning, low volume NBS, black 384-well plate (Corning Cat. #4514) • 1. 100 nL—100× Test Compound in 100% DMSO • 2. 2.4 μL—Kinase buffer • 3. 5 μL—2× Peptide/Kinase Mixture • 4. 2.5 μL—4×ATP Solution • 5. 30—second plate shake • 6. 60—minute Kinase Reaction incubation at room temperature • 7. 5 μL—Development Reagent Solution • 8. 30—second plate shake • 9. 60—minute Development Reaction incubation at room temperature • 10. Read on fluorescence plate reader and analyze the data Z′-LYTE Assay Controls
# (§8) SelectScreen Kinase Profiling Service uses XLfit from IDBS. The dose response curve is curve fit to model number 205 (sigmoidal dose-response model).
# The 2×MAP4K2 (GCK)/Ser/Thr 07 mixture is prepared in 50 mM HEPES pH 7.5, 0.01% BRIJ-35, 10 mM MgCl2, 1 mM EGTA. The final 10 μL Kinase Reaction consists of 0.11-3 ng MAP4K2 (GCK) and 2 μM Ser/Thr 07 in 50 mM HEPES pH 7.5, 0.01% BRIJ-35, 10 mM MgCl2, 1 mM EGTA. After the 1 hour Kinase Reaction incubation, 5 μL of a 1:45000 dilution of Development Reagent A is added.
# [2] = biological target: PTK2 (FAK) (Homo sapiens, UniProt Q05397); assay: Z'-LYTE SelectScreen biochemical kinase assay PTK2 (FAK)
# Description: as §1, §2, §3, §4, §5, §6, §7, §8
# The 2×PTK2 (FAK)/Tyr 07 mixture is prepared in 50 mM HEPES pH 7.5, 0.01% BRIJ-35, 10 mM MgCl2, 1 mM EGTA. The final 10 μL Kinase Reaction consists of 12.5-100 ng PTK2 (FAK) and 2 μM Tyr 07 in 50 mM HEPES pH 7.5, 0.01% BRIJ-35, 10 mM MgCl2, 1 mM EGTA. After the 1 hour Kinase Reaction incubation, 5 μL of a 1:16 dilution of Development Reagent B is added.
# [3] = 10 μmolar compound concentration, ATP at Km app, read-out: MAP4K2 (GCK) inhibition
# [4] = read-out: % Inhibition mean MAP4K2 (GCK)
# [5] = 10 μmolar compound concentration, ATP at Km app, read-out: PTK2 (FAK) inhibition
# [6] = read-out: % Inhibition mean PTK2 (FAK)
# Sequence of PTK2 (FAK) (Q05397 whole entry): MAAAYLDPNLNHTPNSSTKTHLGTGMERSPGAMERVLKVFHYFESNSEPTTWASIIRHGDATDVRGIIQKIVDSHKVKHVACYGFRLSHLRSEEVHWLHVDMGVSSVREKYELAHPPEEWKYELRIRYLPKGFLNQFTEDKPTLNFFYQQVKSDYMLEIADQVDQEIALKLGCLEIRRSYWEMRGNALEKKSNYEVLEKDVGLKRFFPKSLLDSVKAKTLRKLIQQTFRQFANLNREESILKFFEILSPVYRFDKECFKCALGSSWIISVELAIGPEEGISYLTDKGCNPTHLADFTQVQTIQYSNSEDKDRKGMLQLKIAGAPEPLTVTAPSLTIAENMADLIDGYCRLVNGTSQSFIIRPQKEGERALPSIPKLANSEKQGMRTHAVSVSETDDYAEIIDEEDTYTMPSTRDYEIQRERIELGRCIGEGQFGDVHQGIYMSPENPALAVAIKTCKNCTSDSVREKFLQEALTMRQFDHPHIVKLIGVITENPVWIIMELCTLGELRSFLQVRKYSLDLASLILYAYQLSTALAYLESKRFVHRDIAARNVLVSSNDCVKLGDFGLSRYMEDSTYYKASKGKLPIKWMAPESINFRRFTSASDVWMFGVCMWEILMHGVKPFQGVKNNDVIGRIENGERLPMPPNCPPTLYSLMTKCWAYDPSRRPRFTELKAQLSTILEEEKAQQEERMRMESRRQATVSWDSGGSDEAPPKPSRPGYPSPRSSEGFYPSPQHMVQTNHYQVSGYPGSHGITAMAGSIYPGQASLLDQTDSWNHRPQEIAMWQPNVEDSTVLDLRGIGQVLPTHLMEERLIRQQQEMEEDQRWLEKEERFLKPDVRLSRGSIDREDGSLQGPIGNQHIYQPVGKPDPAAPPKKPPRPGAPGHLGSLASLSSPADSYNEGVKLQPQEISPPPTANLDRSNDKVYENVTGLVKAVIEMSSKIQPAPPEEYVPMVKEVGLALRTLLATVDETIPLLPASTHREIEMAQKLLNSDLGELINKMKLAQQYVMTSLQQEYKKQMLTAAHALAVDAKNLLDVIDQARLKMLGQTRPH
"inhibition at 10 µM [1, 3] [%]","inhibition at 10 µM [1, 4] [%]","inhibition at 10 µM [2, 5] [%]","inhibition at 10 µM [2, 6] [%]",inhibition at 10 µM ([1]; read-out: % Inhibition mean) [%],inhibition at 10 µM ([2]; read-out: % Inhibition mean) [%],SMILES
< 40,27,< 40,14,,,"CCc1nn(C)c2c1CCC(Nc1nc3c(-c4ccc(F)cc4C)cccn3n1)C2 (stereo not drawn) [Example 54, (3-Ethyl-1-methyl-4,5,6,7-tetrahydro-1H-indazol-6-yl)-[8-(4-fluoro-2-methyl-phenyl)-[1,2,4]triazolo[1,5-a]pyridine-2-yl]-amine]"
< 40,3,< 40,16,,,"CCn1ncc2c1CC[C@@H](Nc1nc3c(-c4ccc(F)c(Cl)c4)cccn3n1)C2 [Example R-61, (R)-[8-(3-Chloro-4-fluoro-phenyl)-[1,2,4]triazolo[1,5-a]pyridine-2-yl]-(1-ethyl-4,5,6,7-tetrahydro-1H-indazol-5-yl)-amine]"
< 40,28,< 40,28,,,"CCn1ncc2c1CCC(Nc1nc3c(-c4cnccc4OC)cccn3n1)C2 (stereo not drawn) [Example 68, (1-Ethyl-4,5,6,7-tetrahydro-1H-indazol-5-yl)-[8-(4-methoxy-pyridin-3-yl)-[1,2,4]triazolo[1,5-a]pyridine-2-yl]-amine]"
< 40,14,< 40,27,,,"CCn1ncc2c1CCC(Nc1nc3c(-c4ccc(C)nc4)cccn3n1)C2 (stereo not drawn) [Example 67, (1-Ethyl-4,5,6,7-tetrahydro-1H-indazol-5-yl)-[8-(6-methyl-pyridin-3-yl)-[1,2,4]triazolo[1,5-a]pyridine-2-yl]-amine]"
< 40,14,< 40,13,,,"CCn1ncc2c1CCC(Nc1nc3c(-c4cccnc4)cccn3n1)C2 (stereo not drawn) [Example 63, (1-Ethyl-4,5,6,7-tetrahydro-1H-indazol-5-yl)-(8-pyridin-3-yl-[1,2,4]triazolo[1,5-a]pyridine-2-yl)-amine]"
< 40,21,< 40,26,,,"CCn1ncc2c1CCC(Nc1nc3c(-c4ccc(F)cc4C)cccn3n1)C2 (stereo not drawn) [Example 42, (1-Ethyl-4,5,6,7-tetrahydro-1H-indazol-5-yl)-[8-(4-fluoro-2-methyl-phenyl)-[1,2,4]triazolo[1,5-a]pyridine-2-yl]-amine]"

# The next lines start with the compound.
SMILES,"inhibition at 10 µM [1, 3] [%]","inhibition at 10 µM [1, 4] [%]","inhibition at 10 µM [2, 5] [%]","inhibition at 10 µM [2, 6] [%]",inhibition at 10 µM ([1]; read-out: % Inhibition mean) [%],inhibition at 10 µM ([2]; read-out: % Inhibition mean) [%]
"Cc1cc(F)ccc1-c1cccn2nc(NC3CCc4c(cnn4C(C)C)C3)nc12 (stereo not drawn) [Example 44, [8-(4-fluoro-2-methyl-phenyl)-[1,2,4]triazolo[1,5-a]pyridine-2-yl]-(1-isopropyl-4,5,6,7-tetrahydro-1H-indazol-5-yl)-amine]",< 40,26,< 40,15,,
"CCn1nnc2c1CCC(Nc1nc3c(-c4ccc(F)cc4C)cccn3n1)C2 (stereo not drawn) [Example 51, (1-Ethyl-4,5,6,7-tetrahydro-1H-benzotriazol-5-yl)-[8-(4-fluoro-2-methyl-phenyl)-[1,2,4]triazolo[1,5-a]pyridine-2-yl]-amine]",< 40,22,< 40,27,,
"CCn1ncc2c1CCC(Nc1nc3c(-c4ccccc4C)cccn3n1)C2 (stereo not drawn) [Example 56, (1-Ethyl-4,5,6,7-tetrahydro-1H-indazol-5-yl)-[8-(2-methyl-phenyl)-[1,2,4]triazolo[1,5-a]pyridine-2-yl]-amine]",< 40,16,< 40,15,,
"Fc1cccc(-c2cccn3nc(Nc4ccc5[nH]cnc5c4)nc23)c1 [Cpd. 293 in WO09155551, reference compound]",> 80,,> 80,,94,94
"CCn1ncc2c1CCC(Nc1nc3c(-c4cncc(Cl)c4)cccn3n1)C2 (stereo not drawn) [Example 73, [8-(5-Chloro-pyridin-3-yl)-[1,2,4]triazolo[1,5-a]pyridine-2-yl]-(1-ethyl-4,5,6,7-tetrahydro-1H-indazol-5-yl)-amine]",40 to 80,49,< 40,25,,
"CCn1ncc2c1CC[C@H](Nc1nc3c(-c4ccc(F)c(Cl)c4)cccn3n1)C2 [Example S-61, (S)-[8-(3-Chloro-4-fluoro-phenyl)-[1,2,4]triazolo[1,5-a]pyridine-2-yl]-(1-ethyl-4,5,6,7-tetrahydro-1H-indazol-5-yl)-amine]",< 40,12,< 40,23,,
"CC1(C)C(=O)Nc2ccc(Nc3nc4c(-c5cccc(F)c5)cccn4n3)cc21 [Cpd. 263 in WO09155551, reference compound]",> 80,,> 80,,98,101
"CCn1ncc2c1CC[C@@H](Nc1nc3c(-c4ccc(F)cc4C)cccn3n1)C2 [Example R-42, (R)-(1-Ethyl-4,5,6,7-tetrahydro-1H-indazol-5-yl)-[8-(4-fluoro-2-methyl-phenyl)-[1,2,4]triazolo[1,5-a]pyridine-2-yl]-amine]",< 40,25,< 40,28,,
"CCn1ncc2c1CCC(Nc1nc3c(-c4cccnc4OC)cccn3n1)C2 (stereo not drawn) [Example 69, (1-Ethyl-4,5,6,7-tetrahydro-1H-indazol-5-yl)-[8-(2-methoxy-pyridin-3-yl)-[1,2,4]triazolo[1,5-a]pyridine-2-yl]-amine]",< 40,9,< 40,24,,
